# Laboratory results as given in patent publication US10517863B2, “Trilobine and its natural analogs for use as a drug” (PIERRE FABRE MEDICAMENT, priority 2015, dated 2019).
# What was measured:
# [1] = test system: P15 promoter in leukaemia KG1 cells; assay: P15 (CDKN2B) promoter demethylation, bisulfite PCR cloning-sequencing; assay type: cell-based, human; details: after 3 days, at 0.32 μM
# Experimental: (§1) Cancer cell lines (colon HCT116 or leukaemia KG1) were treated with the compounds as indicated in the Data Tables and then analysed as following.
# (§2) DNA was isolated from cultured cells using the DNeasy Blood and Tissue Kit according to the manufacturer's specifications (Qiagen). DNA bisulphite conversion was performed on 2 μg of DNA using the EZ DNA Methylation-Gold Kit according to the manufacturer's specifications (Zymo Research) and bisulfited DNA was eluted with 10 μL of water. Two different techniques were used to analyse the DNA methylation profile after bisulfite conversion of genomic DNA: (A) cloning and sequencing or (B) COBRA. The primers for each promoter are specified in the Table 3.
# Sequencing of bisulfite-treated DNA allowing resolution of the methylation state of every cytosine in the target sequence, at single molecule resolution, is considered as the “gold standard” for DNA methylation analysis.
# Bisulfite-specific primers with a minimum length of 18 bp were designed using Primer 3 program. […]
# PCR amplicons were cloned with the StrataClone Ultra Blunt PCR Cloning Kit (Agilent Technologies), according to the manufacturers' instructions and up to 24 clones were picked for sequencing. […] Electrophoregram files and methylation signals at a given CpG site were quantified using the BISMA software as described in the literature (Rohde et al. BMC Bioinformatics 2010, 11, 230).
# [2] = test system: P16 promoter in colon cancer cells HCT116; assay: P16 (CDKN2A) promoter demethylation, COBRA; assay type: cell-based, human; details: at 0.1 μM
# Experimental: as §1, §2
# This technique is a variation of bisulfite sequencing, and combines bisulfite conversion based polymerase chain reaction with restriction digestion. DNA methylation levels are easily and quickly measured without the need for laborious and costing more time sub-cloning and sequencing, as with bisulfite sequencing.
# DNA amplification was set up with 100 ng eluted bisulfited DNA in 50 μl PCR reaction containing 1×PCR buffer, 2.5 mM MgCl2, 0.3 mM dNTPs, 400 nM each primer and 1.25 units EpiTaq HS (Takara) on C1000 Touch™ thermal cycler by 98° C. for 10 sec, 55° C. for 30 sec, 72° C. for 30 sec×40 cycles. 20 μL of PCR amplicons were digested in 30 μL by 2 units of BsiEI at 60° C. for 90 min. DNA fragments were migrated by 2% agarose gel electrophoresis and each band was quantified by Image Lab Software v2.0 (BioRad Laboratories).
# [3] = test system: panel of cancer cell lines; assay: Anti-proliferative activity (ATPLite), whole panel; assay type: cell-based; details: Homo sapiens; range over the panel
# Experimental: To measure the anti-proliferative properties of tested molecules, 2×10^4 cells are seeded at day 0 in a 96 wells plate. The compounds to be tested, stored at −20° C. as 10^−2 M stock solution in 100% DMSO, are freshly diluted on day 1 in the cell medium, before adding a dose range of 3.2 nM to 10 μM to the cells. The cell viability is assessed using the ATPLite kit from Perkin (ATPlite 1 Step Luminescence Assay System, ref 3016739), following the provider instructions. The raw data are analyzed with GraphPad Prism software (v4.03) to generate IC50 values corresponding to the compound concentrations giving 50% reduction in cell viability. The values presented are the mean results of at least two independent experiments. The standard errors are indicated.
# [4] = molecular target: T1, His-DNMT1 (182 kDa, human) (Homo sapiens, UniProt P26358); assay: hDNMT1 assay ([methyl-3H] SAM Flashplate); assay type: biochemical; details: read-out: hDNMT1 percentage of inhibition
# T1 construct: His; made in house
# Experimental: His-DNMT1 (182 kDa, human) was cloned, expressed and purified as described in the literature (Halby et al. ChemBioChem 2012, 13, 157-165). The reaction was performed in a […] total reaction volume in low volume NBS™ 384-well microplates (Corning), containing the tested compound (up to 1% DMSO), 1 μM of a SAM/[methyl-^3H] SAM (3 TBq/mmol, PerkinElmer) mix in a ratio of 3-to-1 (isotopic dilution 1*:3), 0.3 μM of biotinylated hemimethylated DNA duplex (5′-GATmCGCmCGATGmCGmCGAATmCGmCGATmCGATGmCGAT-3′ and BIOT-5′-[…]-3′), and 90 nM of DNMT1 in methylation buffer (20 mM HEPES pH 7.2, 1 mM EDTA, 50 mM KCl, 25 μg/mL BSA). The reaction was incubated at 37° C. for 2 hours. 8 μL, are then transferred into a streptavidin 96-well scintillant coated Flashplate™ (PerkinElmer) containing 190 μL of 20 μM SAH in 50 mM Tris-HCl pH 7.4. The Flashplate™ was agitated at room temperature for 1 hour and read in 200 μL of 50 mM Tris-HCl pH 7.4 on TopCount NXT (PerkinElmer). The percentage of inhibition is reported. The formula used to calculate the percentage of inhibition is [(X−Y)/X]×100, where X is the signal determined in the absence of the inhibitor and Y is the signal obtained in the presence of the inhibitor.
# T1 sequence (P26358 whole entry): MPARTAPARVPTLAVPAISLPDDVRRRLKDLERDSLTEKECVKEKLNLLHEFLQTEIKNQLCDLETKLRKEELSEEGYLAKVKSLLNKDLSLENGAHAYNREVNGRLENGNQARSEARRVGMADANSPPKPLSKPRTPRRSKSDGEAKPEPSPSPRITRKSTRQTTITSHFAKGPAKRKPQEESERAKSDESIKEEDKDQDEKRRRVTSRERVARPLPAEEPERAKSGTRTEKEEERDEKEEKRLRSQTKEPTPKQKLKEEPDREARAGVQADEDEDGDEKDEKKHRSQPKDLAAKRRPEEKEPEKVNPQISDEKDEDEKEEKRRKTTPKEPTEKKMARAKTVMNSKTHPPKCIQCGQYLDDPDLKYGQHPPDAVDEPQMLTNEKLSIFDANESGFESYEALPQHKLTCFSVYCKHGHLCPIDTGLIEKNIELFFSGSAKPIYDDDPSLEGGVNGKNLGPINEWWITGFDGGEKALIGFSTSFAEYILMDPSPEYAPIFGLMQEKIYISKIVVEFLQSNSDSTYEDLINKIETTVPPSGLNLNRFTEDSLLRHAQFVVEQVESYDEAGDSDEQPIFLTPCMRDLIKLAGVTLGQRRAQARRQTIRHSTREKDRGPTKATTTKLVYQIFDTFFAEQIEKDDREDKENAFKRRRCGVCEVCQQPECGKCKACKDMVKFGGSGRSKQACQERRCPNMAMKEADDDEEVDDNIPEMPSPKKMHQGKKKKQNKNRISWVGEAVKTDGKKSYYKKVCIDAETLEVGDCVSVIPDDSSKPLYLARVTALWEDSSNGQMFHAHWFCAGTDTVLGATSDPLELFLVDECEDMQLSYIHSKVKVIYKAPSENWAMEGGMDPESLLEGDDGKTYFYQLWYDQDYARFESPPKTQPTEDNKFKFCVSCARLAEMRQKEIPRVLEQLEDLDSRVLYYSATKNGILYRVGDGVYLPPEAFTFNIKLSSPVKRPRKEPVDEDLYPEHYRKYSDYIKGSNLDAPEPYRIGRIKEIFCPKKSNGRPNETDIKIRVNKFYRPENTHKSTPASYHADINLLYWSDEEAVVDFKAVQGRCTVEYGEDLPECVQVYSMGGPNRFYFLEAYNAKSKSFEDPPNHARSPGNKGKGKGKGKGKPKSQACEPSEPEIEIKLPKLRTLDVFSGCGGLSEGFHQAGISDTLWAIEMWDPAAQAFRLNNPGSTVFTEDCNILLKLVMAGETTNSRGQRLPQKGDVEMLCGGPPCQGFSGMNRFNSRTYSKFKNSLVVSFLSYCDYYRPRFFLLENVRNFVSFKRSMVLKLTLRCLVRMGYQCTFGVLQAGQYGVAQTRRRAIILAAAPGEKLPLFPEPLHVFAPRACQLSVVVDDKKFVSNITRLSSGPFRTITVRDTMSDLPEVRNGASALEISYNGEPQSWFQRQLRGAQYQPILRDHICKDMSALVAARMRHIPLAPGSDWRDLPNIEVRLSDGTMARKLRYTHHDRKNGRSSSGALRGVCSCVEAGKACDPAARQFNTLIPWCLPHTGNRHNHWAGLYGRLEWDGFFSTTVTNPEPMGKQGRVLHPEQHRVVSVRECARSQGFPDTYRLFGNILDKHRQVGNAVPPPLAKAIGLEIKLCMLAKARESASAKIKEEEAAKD
structure (smiles),measurement,setting,value
"COc1ccc2cc1Oc1ccc(cc1)C[C@@H]1NCCc3cc(OC)c4c(c31)Oc1cc3c(cc1O4)CCN(C)[C@H]3C2 [Compound 1, Trilobine]",Demethylation (COBRA) P15/KG1,[1],−25% after 3 days
same,Demethylation (COBRA) P16/HCT116,[2]; after 3 days,−37% after 3 days
same,Demethylation (COBRA) P16/HCT116,[2]; after 7 days,−52% after 7 days
same,Demethylation (COBRA) P16/HCT116,[2]; after 21 days,−53% after 21 days
same,IC50,[3],0.9 to 6.8 µM
same,inhibition at 32 µM,[4],50%
